Results on 7 compounds are retold here after US4232040A, “Compositions for and a method of preventing diabetic complications” (Syntex (U.S.A.) Inc., priority 1978, dated 1980).

One assay deals with T1, Aldose reductase (Oryctolagus cuniculus, UniProt P15122).
T1 construct: Aldose reductase is isolated by homogenizing the lens in 3 volumes of water; from tissue; host or cells: lens of mature New Zealand rabbits
The experiment in a line: Aldose reductase inhibition in vitro (rabbit lens enzyme, glyceraldehyde substrate, loss of absorbance at 340 millimicrons). It counts as biochemical, New Zealand rabbit. To be noted: 2 min, Table I, relative to non-inhibited control (0%); for inhibition at 100 µM: molar concentration of xanthone compound 1 × 10^-4; for inhibition at 10 µM: molar concentration of xanthone compound 1 × 10^-5; for inhibition at 1 µM: molar concentration of xanthone compound 1 × 10^-6. The method, then: In brief, a solution of the enzyme is added to an appropriately buffered solution containing glyceraldehyde. The loss of ultra violet absorbance at 340 millimicrons is indicative of the rate of reaction of the aldehyde with the enzyme as previously reported by Hayman and Kinoshita, (J. Biol. Chem: 240, 877, (1965)).
Fifty lenses are obtained from mature, New Zealand, rabbits and are immediately frozen on dry ice. Aldose reductase is isolated by homogenizing the lens in 3 volumes of water for 30 seconds in a Waring blender followed by centrifugation at 10,000 xg for 15 minutes to remove insoluble material. Saturated ammonium sulfate is added to the supernatant fluid to 40% saturation. The suspension is centrifuged after 15 minutes, and the supernatant liquid recovered. Additional protein is removed by increasing the ammonium sulfate concentration to 50%, and centrifuging the mixture. Aldose reductase is precipitated from the 50% saturated solution by the addition of powdered ammonium sulfate to 75% saturation and is recovered by centrifugation. The precipitated enzyme is assayed by following the ultraviolet absorbance at 340 millimicrons after dissolving the enzyme in 0.05 M sodium chloride. The enzyme (0.50 ml) is added to a quartz cuvette containing phosphate buffer (0.067 M, pH 6.0), NADPH (2×10^-5 M), and water to a final volume of 3 ml and the cuvette inserted in a conventional ultra-violet spectrometer. The reaction is started by the addition of substrate (glyceraldehyde) to the contents of the cuvette and is followed by the determination of loss of absorbance at 340 millimicrons for 2 minutes at 37° C. The reaction rate observed is usually linear for at least 5 minutes.
All results are shown in Tables I, II, and III as % inhibition, i.e. based on a non-inhibited control sample, no inhibition, 0%.

The next assay has as its system lens aldose reductase. The note with it: in vitro studies; cited from earlier work.

On Aldose reductase, `CN(C)S(=O)(=O)c1ccc2oc3ccc(C(=O)O)cc3c(=O)c2c1` yielded an inhibition at 100 µM of 94%, an inhibition at 10 µM of 87% and an inhibition at 1 µM of 67%.

On Aldose reductase, `CC(C)CN(C)S(=O)(=O)c1ccc2oc3ccc(C(=O)O)cc3c(=O)c2c1` gave an inhibition at 100 µM of 95%, an inhibition at 10 µM of 75% and an inhibition at 1 µM of 25%.

On Aldose reductase, `CN(C)S(=O)(=O)c1ccc2oc3ccc(C(=O)N(CCO)CCO)cc3c(=O)c2c1` had an inhibition at 100 µM of 86%, an inhibition at 10 µM of 64% and an inhibition at 1 µM of 29%.

`O=C(O)c1ccc2oc3ccc(S(=O)(=O)O)cc3c(=O)c2c1` [H 3 H]: at 1 µM the inhibition at Aldose reductase was 0%.

Turning to `C[C@@H]1O[C@@H](Oc2c(-c3cc(O)c(O)c(O)c3)oc3cc(O)cc(O)c3c2=O)[C@H](O)[C@H](O)[C@H]1O` [myrecetrin], the “inhibition of lens aldose reductase” value in the assay on lens aldose reductase is “among the most potent”.

As to `O=c1c(O)c(-c2ccc(O)c(O)c2)oc2cc(O)cc(O)c12` [quercetin], the “inhibition of lens aldose reductase” value with lens aldose reductase is recorded as “among the most potent”.

With `C[C@@H]1O[C@@H](Oc2c(-c3ccc(O)c(O)c3)oc3cc(O)cc(O)c3c2=O)[C@H](O)[C@H](O)[C@H]1O` [quercetrin], in the assay on lens aldose reductase, the “inhibition of lens aldose reductase” value is “among the most potent”.
